Data taken from US12089595B2, “Pseudomonas strains and their metabolites to control plant diseases” (T3 Bioscience, Inc., priority 2020, dated 2024).
Values after ≈ are worked out from the molar mass of the structure shown. Where two headings read alike, the source gives them in different places.

Tests used:
[1] = test system: Erwinia amylovora 1189; assay: MIC antimicrobial assay (CLSI, 96 well plates); assay type: cell-based
[2] = test system: Erwinia amylovora 110; assay: microbe, parasite or virus in culture; assay type: cell-based
[3] = test system: Erwinia amylovora DM1 (streptomycin-resistant); assay: microbe, parasite or virus in culture; assay type: cell-based
[4] = test system: Erwinia amylovora 898 (streptomycin-resistant); assay: microbe, parasite or virus in culture; assay type: cell-based
[5] = test system: Xanthomonas axonopodis pv. citri-Miami XC2002-00010; assay: MIC antimicrobial assay (CLSI, 96 well plates); assay type: cell-based
[6] = test system: Xanthomonas axonopodis pv. citri N40-SO5; assay: MIC antimicrobial assay (CLSI, 96 well plates); assay type: cell-based
[7] = test system: Methicillin-resistant staphylococcus aureus USA300; assay: microbe, parasite or virus in culture; assay type: cell-based
[8] = test system: Pectobacterium parmentieri UPP163 936; assay: MIC antimicrobial assay (CLSI, 96 well plates); assay type: cell-based; settings: UPP163936; Pectobacterium parmentieri UPP163 936 (soft rot)
[9] = test system: Pectobacterium atrosepticum 942; assay: MIC antimicrobial assay (CLSI, 96 well plates); assay type: cell-based; settings: Pectobacterium atrosepticum 942 (soft rot)
[10] = test system: Pectobacterium carotovorum subsp. brasiliensis 944; assay: MIC antimicrobial assay (CLSI, 96 well plates); assay type: cell-based; settings: Pectobacterium carotovorum subsp. brasiliensis 944 (soft rot)
[11] = test system: Pectobacterium carotovorum subsp. carotovorum wpp14 945; assay: MIC antimicrobial assay (CLSI, 96 well plates); assay type: cell-based; settings: Pectobacterium carotovorum subsp. carotovorum wpp14 945 (soft rot)
[12] = test system: Dickeya dadantii 3937; assay: MIC antimicrobial assay (CLSI, 96 well plates); assay type: cell-based; settings: Dickeya dadantii 3937 (soft rot)
[13] = test system: Pseudomonas savastanoi pv. savastanoi; assay: MIC antimicrobial assay (CLSI, 96 well plates); assay type: cell-based
[14] = test system: E coli O157:H7; assay: MIC antimicrobial assay (CLSI, 96 well plates); assay type: cell-based
[15] = test system: Flavobacterium columnare MS-FC-4; assay: MIC antimicrobial assay (CLSI, 96 well plates); assay type: cell-based; settings: MSFC4; Flavobacterium columnare MS-FC-4 (Fish columnaris disease), SHIEH
[16] = test system: Pseudomonas syringae pv. tomato PT30; assay: MIC antimicrobial assay (CLSI, 96 well plates); assay type: cell-based; settings: Pseudomonas syringae pv. tomato PT30 (Tomato bacterial speck)
[17] = test system: Pseudomonas syringae pv syringae 7046; assay: MIC antimicrobial assay (CLSI, 96 well plates); assay type: cell-based; settings: Pseudomonas syringae pv syringae 7046 (Bacterial canker or blast)
[18] = test system: Pseudomonas syringae pv. lachrymans 1188-1; assay: MIC antimicrobial assay (CLSI, 96 well plates); assay type: cell-based; settings: Pseudomonas syringae pv. lachrymans 1188-1 (Angular Leaf Spot of Cucurbits)
[19] = test system: Xanthomonas campestris pv. Pruni; assay: MIC antimicrobial assay (CLSI, 96 well plates); assay type: cell-based; settings: Xanthomonas campestris pv. Pruni (Bacterial Spot of Peach)
[20] = test system: Xanthomonas campestris pv. vesicatoria XV-16; assay: MIC antimicrobial assay (CLSI, 96 well plates); assay type: cell-based; settings: Xanthomonas campestris pv. vesicatoria XV-16 (Tomato bacterial spot)
[21] = test system: Xanthomonas arboricola pv. Juglandis 219; assay: MIC antimicrobial assay (CLSI, 96 well plates); assay type: cell-based
[22] = test system: Clavibacter michiganensis subsp. michiganensis NCPPB382; assay: MIC antimicrobial assay (CLSI, 96 well plates); assay type: cell-based
[23] = test system: Clavibacter michiganensis subsp. michiganensis Cmm 0317; assay: MIC antimicrobial assay (CLSI, 96 well plates); assay type: cell-based
[24] = test system: Clavibacter michiganensis subsp. michiganensis Cmm 0690; assay: MIC antimicrobial assay (CLSI, 96 well plates); assay type: cell-based
[25] = test system: Xanthomonas bacteria (Xanthomonas axonopodis pv. citri); assay: MIC antimicrobial assay; assay type: cell-based
[26] = test system: E. amylovora; assay: Plate diffusion assay in LB plates; assay type: cell-based, Erwinia amylovora; settings: 2 mg/mL; for zone of inhibition at 2000 µg/mL: Erwinia amylovora, read-out: Diameter of the Inhibitory zone
Text: Two assays were used for the antimicrobial test of 0617-T307 cell broth and metabolites. One is plate diffusion assay and the other one is microplate assay. LB plate was used for the plate diffusion assay of the antimicrobial activity of RejuAgro A containing fractions and cell broths against E. amylovora (Table 3).

[27] = test system: E. amylovora 110; assay: Greenhouse blossom blight assay on crabapples trees (RejuAgro A); assay type: in vivo, Erwinia amylovora
Protocol: To evaluate the biological control activity of RejuAgro A against Erwinia amylovora, greenhouse infection assay on crabapples trees was conducted at the University of Wisconsin-Milwaukee. Ten μg/mL was supplemented with 1% Polyethylene glycol (PEG) 4000 or 1% PEG4000 (negative control) were applied on full bloom trees flowers 3 hours prior to the inoculation and 24 hours post-inoculation. Approximately 10^8 CFU/mL of E. amylovora 110 strain resuspended in water was used as inoculum. The infection rate was calculated at around day 6 post inoculation. RejuAgro A can effectively suppress the blossom blight (Table 6).

[28] = test system: X. arboricola pv. Juglandis Xaj219; assay: microbe, parasite or virus in culture; assay type: cell-based, Xanthomonas arboricola pv. Juglandis; settings: Xanthomonas arboricola, read-out: Diameter of the zone of inhibition
[29] = test system: X. arboricola pv. Juglandis Xaj417; assay: microbe, parasite or virus in culture; assay type: cell-based, Xanthomonas arboricola pv. Juglandis; settings: Xanthomonas arboricola, read-out: Diameter of the zone of inhibition
[30] = test system: R. solanacearum K60; assay: microbe, parasite or virus in culture; assay type: cell-based; settings: Ralstonia solanacearum, K60, read-out: Diameter of the zone of inhibition
[31] = test system: R. solanacearum Pss; assay: microbe, parasite or virus in culture; assay type: cell-based; settings: Ralstonia solanacearum, read-out: Diameter of the zone of inhibition
[32] = test system: P. syringae (pv. tomato PT30, pv syringae 7046, pv. lachrymans 1188-1); assay: MIC antimicrobial assay; settings: Pseudomonas syringae
[33] = test system: Pseudomonas soli 0617-T307; assay: MIC antimicrobial assay (CLSI, 96 well plates)
[34] = Staphylococcus aureus, MRSA / USA300

## CSC1=C(C)C(=O)C(=O)NC1=O [RejuAgro A]
[1]; Erwinia amylovora, 1189, Erwinia amylovora 1189 (Fire blight on apples/pears)
  MIC: 5 µg/mL (≈ 27 µM)
[2]
  MIC: 5 µg/mL (≈ 27 µM)
[3]; Erwinia amylovora
  MIC: 10 µg/mL (≈ 54 µM)
[4]; Erwinia amylovora
  MIC: 10 µg/mL (≈ 54 µM)
[5]
  MIC: 5 µg/mL (≈ 27 µM)
[6]
  MIC: 5 µg/mL (≈ 27 µM)
[7]; MRSA USA300 (Skin infection, sepsis)
  MIC: >40 µg/mL
[7]; [34]
  MIC: > 40 µg/mL
[8]
  MIC: 40 µg/mL (≈ 216 µM)
[9]
  MIC: 20 µg/mL (≈ 108 µM)
[10]
  MIC: 40 µg/mL (≈ 216 µM)
[11]
  MIC: 40 µg/mL (≈ 216 µM)
[12]
  MIC: 40 µg/mL (≈ 216 µM)
[13]; Pseudomonas savastanoi
  MIC: 40 µg/mL (≈ 216 µM)
[14]
  MIC: 40 µg/mL (≈ 216 µM)
[15]
  MIC: 5 µg/mL (≈ 27 µM)
[16]
  MIC: 40 µg/mL (≈ 216 µM)
[17]
  MIC: 20 µg/mL (≈ 108 µM)
[18]
  MIC: 10 µg/mL (≈ 54 µM)
[19]; read-out: MIC
  MIC: 40 µg/mL (≈ 216 µM)
[20]
  MIC: 2.5 µg/mL (≈ 13.5 µM)
[21]; Xanthomonas arboricola
  MIC: 6.25 µg/mL (≈ 33.7 µM)
[22]
  MIC: 6.25 µg/mL (≈ 33.7 µM)
[23]
  MIC: 1.56 µg/mL (≈ 8.42 µM)
[24]
  MIC: 12.5 µg/mL (≈ 67.5 µM)
[25]
  MIC: 5 µg/mL (≈ 27 µM)
[26]
  Diameter of the Inhibitory zone: showed the antimicrobial activity
  zone of inhibition at 2000 µg/mL: 11 mm
[27]; 10 μg/mL with 1% PEG4000, 3 hours prior and 24 hours post-inoculation, around day 6, negative control 50.8%
  Infection rate: 12.3%
[28]
  zone of inhibition at 2000 µg/mL: 5 mm
[29]
  zone of inhibition at 2000 µg/mL: 10 mm
[30]
  zone of inhibition at 2000 µg/mL: 4 mm
[31]
  zone of inhibition at 2000 µg/mL: 5 mm
[32]
  MIC: 40 µg/mL (≈ 216 µM)
[33]; Pseudomonas soli 0617-T307 (RejuAgro A producer), LB media
  MIC: >40 µg/mL
[33]; Pseudomonas soli, 0617T307
  MIC: > 40 µg/mL

## [H]/N=C(/N)N[C@H]1[C@H](O)[C@@H](O)[C@H](O[C@@H]2O[C@@H](C)[C@](O)(C=O)[C@H]2O[C@@H]2O[C@@H](CO)[C@H](O)[C@@H](O)[C@@H]2NC)[C@@H](N/C(N)=N\[H])[C@@H]1O [Streptomycin, reference compound]
[1]; Erwinia amylovora 1189 (Fire blight on apples/pears)
  MIC: 20 µg/mL (≈ 34.4 µM)
[1]; Erwinia amylovora, 1189, Erwinia amylovora 1189 (Fire blight on apples/pears), read-out: MIC
  MIC: 10 µg/mL (≈ 17.2 µM)
[2]
  MIC: 5 µg/mL (≈ 8.6 µM)
[3]; Erwinia amylovora
  MIC: > 40 µg/mL
[3]; Erwinia amylovora DM1, streptomycin-resistant
  MIC: >40 µg/mL
[4]; Erwinia amylovora
  MIC: > 40 µg/mL
[4]; Erwinia amylovora 898, spontaneous streptomycin-resistant
  MIC: >40 µg/mL
[5]
  MIC: 0.16 µg/mL (≈ 0.275 µM)
[6]
  MIC: 0.16 µg/mL (≈ 0.275 µM)
[7]; [34]
  MIC: 10 µg/mL (≈ 17.2 µM)
[8]
  MIC: 40 µg/mL (≈ 68.8 µM)
[9]
  MIC: 20 µg/mL (≈ 34.4 µM)
[10]
  MIC: 40 µg/mL (≈ 68.8 µM)
[11]
  MIC: 40 µg/mL (≈ 68.8 µM)
[12]
  MIC: 20 µg/mL (≈ 34.4 µM)
[13]; Pseudomonas savastanoi pv. savastanoi (Olive knot), read-out: MIC
  MIC: 0.31 µg/mL (≈ 0.533 µM)
[14]
  MIC: 20 µg/mL (≈ 34.4 µM)
[15]
  MIC: 1.25 µg/mL (≈ 2.15 µM)
[16]
  MIC: 2.5 µg/mL (≈ 4.3 µM)
[17]
  MIC: 2.5 µg/mL (≈ 4.3 µM)
[18]
  MIC: 5 µg/mL (≈ 8.6 µM)
[19]
  MIC: >40 µg/mL
[19]; read-out: MIC
  MIC: > 40 µg/mL
[20]
  MIC: 20 µg/mL (≈ 34.4 µM)
[21]; Xanthomonas arboricola pv. Juglandis 219 (walnut blight), read-out: MIC
  MIC: 0.39 µg/mL (≈ 0.671 µM)
[22]
  MIC: 12.5 µg/mL (≈ 21.5 µM)
[23]
  MIC: 3.12 µg/mL (≈ 5.36 µM)
[24]
  MIC: 12.5 µg/mL (≈ 21.5 µM)
[25]
  MIC: 0.16 µg/mL (≈ 0.275 µM)
[26]
  zone of inhibition at 2000 µg/mL: 24 mm
[27]; 200 μg/mL, around day 6 post inoculation
  Infection rate: 5.7%
[28]
  zone of inhibition at 100 µg/mL: 13 mm
[29]
  zone of inhibition at 100 µg/mL: 19 mm
[30]
  zone of inhibition at 100 µg/mL: 15 mm
[31]
  zone of inhibition at 100 µg/mL: 15 mm
[32]
  MIC: 2.5 to 5 µg/mL (≈ 4.3 to 8.6 µM)
[33]; Pseudomonas soli, 0617T307
  MIC: > 40 µg/mL
